Experiment: Drug level treated with Photo Dox-Fol conjugate assessed as photolysis-mediated compound release in presence of 1.1 J/cm2 UV light irradiation by RP-HPLC method

In the case of COc1cccc2c1C(=O)c1c(O)c3c(c(O)c1C2=O)C[C@@](O)(C(=O)CO)C[C@@H]3O[C@H]1C[C@H](N)[C@H](O)[C@H](C)O1, the Drug metabolism was “Metabolite detected”.
